Results on 5 compounds are retold here after the NIST ThermoML archive (doi:10.1021/je050527x).

± gives the expanded uncertainty stated by the source.

A word on the mass density: it is the mass of a sample divided by its volume. By refractive index is commonly meant a measure of how strongly the sample bends light.

The conditions of series [1]: Liquid; for mass density: 101.33 kPa; for Normal boiling temperature: Fischer boiling-point apparatus.
The nature of series [2]: refractive index (Na D-line) (dimensionless). To be noted: 293.1 K; 101.33 kPa; Liquid; Standard Abbe refractometry.

With `CC(=O)CC(C)C` [4-methylpentan-2-one], in series [1] (298.1 K), the mass density was found to be 796.2 ± 1.1 kg/m3. Moreover, the Normal boiling temperature in series [1] was 116.30 ± 0.2 °C. The refractive index in series [2] was 1.3959 ± 0.0011.

Consider `CC(=O)O` [acetic acid], for which the mass density in series [1] (298.1 K) is 1044.3 ± 0.5 kg/m3. Besides, the Normal boiling temperature in series [1] is 117.70 ± 0.2 °C. In series [2], the refractive index was 1.3721 ± 0.0011.

In the case of `CC(=O)OCc1ccccc1` [benzyl ethanoate], the mass density in series [1] (293.1 K) is given as 1055.2 ± 0.9 kg/m3. In addition, the Normal boiling temperature in series [1] worked out at 213.10 ± 0.2 °C. The refractive index in series [2] was determined as 1.5235 ± 0.0011.

Turning to `CCCC#N` [butanenitrile], in series [1] (293.1 K), the mass density is 793.7 ± 1.1 kg/m3. In addition, the Normal boiling temperature in series [1] was determined as 117.40 ± 0.2 °C. Further, the refractive index in series [2] is 1.384 ± 0.0011.

`CCC(=O)O` [propanoic acid]: the mass density in series [1] (298.1 K) amounted to 988 ± 0.5 kg/m3. The Normal boiling temperature in series [1] came to 140.90 ± 0.2 °C. Also, the refractive index in series [2] stood at 1.3811 ± 0.0011.
